Measured values from US9757334B2, “Surfactant-stripped micelle compositions with high cargo to surfactant ratio” (The Research Foundation for The State University of New York, priority 2014, dated 2017).

Experiment: Absorbance and peak shift of concentrated solutions
Assay type: physicochemical
Details: 1000 OD/mL in 10 μm path length versus 1000 fold dilution
Protocol: Characterization of Nanonap Physical and Optical Properties: Size and zeta potential measurement were carried out using dynamic light scattering with a Nano ZS90 Zetasizer (Malvern Instruments). Transmission electron microscopy was performed using a JEM-2010 electron microscope to determine the morphology of an aqueous dispersion of nanonaps negatively stained with 1% uranyl acetate. Absorbance was measured by with a Lambda 35 UV/VIS spectrophotometer (Perkin Elmer) at room temperature using cuvettes with 1 cm path lengths, except for the high-concentrated spectral shifting analysis which used 10 μm path-length cuvettes.
1 Pc and 3 Nc dyes were identified that gave rise to nanonaps with peaks at 600, 707, 793 and 863 nm (FIG. 25a, b). The nanonaps generated absorption spanning the NIR spectrum while maintaining reasonably narrow full-width half-maxima (50-100 nm). Since PA imaging can resolve multiple absorption wavelengths, multi-wavelength classes of nanoparticles are desirable. The PA spectral response of nanonaps aligned with their absorption spectra (FIG. 35). The nanoparticles could be concentrated into fully soluble solutions with absorptions of greater than 1000. […] This was assessed by measuring absorption of a concentrated solution (1000 optical densities (OD)/mL) in a 10 μm path length, and then measuring a 1000 fold dilution of the same solution in a 1 cm path length. […]

absorption peak shift upon concentration: large absorption shifts
SMILES: CC1(C)C(/C=C/C=C/C=C/C=C2\N(CCCCS(=O)(=O)O)c3ccc4ccccc4c3C2(C)C)=[N+](CCCCS(=O)(=O)[O-])c2ccc3ccccc3c21 [indocyanine green]
